The target of one assay is Furin (Homo sapiens, UniProt P09958).
For assay [1], the target named is T1, Proprotein convertase subtilisin/kexin type 6 (Rattus norvegicus, UniProt Q63415).
T1 sequence (Q63415 whole entry): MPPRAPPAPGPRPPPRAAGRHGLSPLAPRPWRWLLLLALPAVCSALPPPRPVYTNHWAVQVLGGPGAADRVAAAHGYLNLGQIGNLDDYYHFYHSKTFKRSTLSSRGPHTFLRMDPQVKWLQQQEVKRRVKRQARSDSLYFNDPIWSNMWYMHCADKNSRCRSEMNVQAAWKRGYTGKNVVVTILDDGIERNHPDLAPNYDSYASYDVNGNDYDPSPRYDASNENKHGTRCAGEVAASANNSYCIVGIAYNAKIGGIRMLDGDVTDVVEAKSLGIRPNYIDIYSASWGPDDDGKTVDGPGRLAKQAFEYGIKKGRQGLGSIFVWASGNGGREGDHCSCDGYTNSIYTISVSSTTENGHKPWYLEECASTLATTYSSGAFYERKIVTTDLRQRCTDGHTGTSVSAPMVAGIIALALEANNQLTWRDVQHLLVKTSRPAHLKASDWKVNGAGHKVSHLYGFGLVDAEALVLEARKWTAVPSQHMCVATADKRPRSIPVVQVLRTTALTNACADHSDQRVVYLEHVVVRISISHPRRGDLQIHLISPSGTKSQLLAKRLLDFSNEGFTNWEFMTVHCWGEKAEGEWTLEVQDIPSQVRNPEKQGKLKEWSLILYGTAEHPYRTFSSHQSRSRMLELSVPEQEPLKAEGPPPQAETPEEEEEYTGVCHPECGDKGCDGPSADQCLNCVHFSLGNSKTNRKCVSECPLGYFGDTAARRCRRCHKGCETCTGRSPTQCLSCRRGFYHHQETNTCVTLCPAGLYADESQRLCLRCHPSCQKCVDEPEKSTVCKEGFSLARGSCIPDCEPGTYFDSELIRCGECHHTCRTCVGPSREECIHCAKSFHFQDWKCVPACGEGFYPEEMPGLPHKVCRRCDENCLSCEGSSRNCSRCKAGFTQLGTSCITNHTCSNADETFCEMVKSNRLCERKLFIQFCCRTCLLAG

For assay [2], the target named is Proprotein convertase subtilisin/kexin type 5 (Homo sapiens, UniProt Q92824).
Chain of Proprotein convertase subtilisin/kexin type 5 (Q92824 whole entry): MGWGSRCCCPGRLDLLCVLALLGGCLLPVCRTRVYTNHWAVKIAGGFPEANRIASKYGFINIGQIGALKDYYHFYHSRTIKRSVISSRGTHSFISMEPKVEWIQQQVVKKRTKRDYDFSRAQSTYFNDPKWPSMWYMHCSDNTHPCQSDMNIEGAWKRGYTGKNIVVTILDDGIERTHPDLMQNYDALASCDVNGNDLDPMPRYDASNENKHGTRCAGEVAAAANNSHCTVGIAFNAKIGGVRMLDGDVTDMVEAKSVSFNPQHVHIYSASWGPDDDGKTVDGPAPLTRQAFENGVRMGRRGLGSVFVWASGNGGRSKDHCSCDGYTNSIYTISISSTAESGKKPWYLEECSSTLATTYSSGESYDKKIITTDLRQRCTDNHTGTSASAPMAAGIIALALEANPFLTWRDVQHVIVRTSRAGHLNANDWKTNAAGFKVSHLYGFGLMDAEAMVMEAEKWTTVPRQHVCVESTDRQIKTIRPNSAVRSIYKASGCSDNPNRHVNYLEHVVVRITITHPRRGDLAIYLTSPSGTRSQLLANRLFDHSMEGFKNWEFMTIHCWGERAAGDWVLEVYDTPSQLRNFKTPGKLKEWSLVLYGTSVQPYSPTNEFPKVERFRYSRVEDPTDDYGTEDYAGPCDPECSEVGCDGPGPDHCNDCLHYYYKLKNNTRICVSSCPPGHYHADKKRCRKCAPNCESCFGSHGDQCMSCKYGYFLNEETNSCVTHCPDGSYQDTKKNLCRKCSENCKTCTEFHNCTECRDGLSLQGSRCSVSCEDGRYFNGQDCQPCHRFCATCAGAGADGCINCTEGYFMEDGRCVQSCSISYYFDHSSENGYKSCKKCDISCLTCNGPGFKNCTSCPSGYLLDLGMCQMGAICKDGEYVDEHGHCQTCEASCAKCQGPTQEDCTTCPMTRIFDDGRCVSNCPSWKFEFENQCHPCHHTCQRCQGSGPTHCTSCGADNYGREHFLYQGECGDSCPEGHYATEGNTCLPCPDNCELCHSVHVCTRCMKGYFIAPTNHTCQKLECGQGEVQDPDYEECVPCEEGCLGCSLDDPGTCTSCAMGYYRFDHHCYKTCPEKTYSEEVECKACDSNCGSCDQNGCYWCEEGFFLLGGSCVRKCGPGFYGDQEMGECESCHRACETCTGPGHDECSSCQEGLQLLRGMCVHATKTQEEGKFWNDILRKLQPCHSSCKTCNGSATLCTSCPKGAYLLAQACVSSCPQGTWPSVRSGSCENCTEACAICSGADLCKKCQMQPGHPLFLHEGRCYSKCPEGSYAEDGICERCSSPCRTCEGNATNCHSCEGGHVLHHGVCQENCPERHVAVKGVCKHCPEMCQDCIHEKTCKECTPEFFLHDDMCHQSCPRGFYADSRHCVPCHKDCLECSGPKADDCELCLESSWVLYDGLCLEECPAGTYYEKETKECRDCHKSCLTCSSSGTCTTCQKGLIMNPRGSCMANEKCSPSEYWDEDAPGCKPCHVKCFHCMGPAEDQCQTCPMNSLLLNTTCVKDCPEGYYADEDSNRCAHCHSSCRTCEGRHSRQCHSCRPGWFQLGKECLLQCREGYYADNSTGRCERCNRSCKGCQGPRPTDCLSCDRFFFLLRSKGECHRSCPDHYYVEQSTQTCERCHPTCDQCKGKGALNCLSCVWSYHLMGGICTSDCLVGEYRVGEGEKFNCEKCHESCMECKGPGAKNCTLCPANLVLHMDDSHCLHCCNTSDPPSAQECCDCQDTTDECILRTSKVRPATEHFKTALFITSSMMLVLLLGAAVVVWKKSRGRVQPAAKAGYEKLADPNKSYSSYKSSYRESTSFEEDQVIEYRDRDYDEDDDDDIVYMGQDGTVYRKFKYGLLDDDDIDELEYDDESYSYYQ
The target in assay [3] is T2, Proprotein convertase subtilisin/kexin type 4 (Homo sapiens, UniProt Q6UW60).
T2 sequence (Q6UW60 whole entry): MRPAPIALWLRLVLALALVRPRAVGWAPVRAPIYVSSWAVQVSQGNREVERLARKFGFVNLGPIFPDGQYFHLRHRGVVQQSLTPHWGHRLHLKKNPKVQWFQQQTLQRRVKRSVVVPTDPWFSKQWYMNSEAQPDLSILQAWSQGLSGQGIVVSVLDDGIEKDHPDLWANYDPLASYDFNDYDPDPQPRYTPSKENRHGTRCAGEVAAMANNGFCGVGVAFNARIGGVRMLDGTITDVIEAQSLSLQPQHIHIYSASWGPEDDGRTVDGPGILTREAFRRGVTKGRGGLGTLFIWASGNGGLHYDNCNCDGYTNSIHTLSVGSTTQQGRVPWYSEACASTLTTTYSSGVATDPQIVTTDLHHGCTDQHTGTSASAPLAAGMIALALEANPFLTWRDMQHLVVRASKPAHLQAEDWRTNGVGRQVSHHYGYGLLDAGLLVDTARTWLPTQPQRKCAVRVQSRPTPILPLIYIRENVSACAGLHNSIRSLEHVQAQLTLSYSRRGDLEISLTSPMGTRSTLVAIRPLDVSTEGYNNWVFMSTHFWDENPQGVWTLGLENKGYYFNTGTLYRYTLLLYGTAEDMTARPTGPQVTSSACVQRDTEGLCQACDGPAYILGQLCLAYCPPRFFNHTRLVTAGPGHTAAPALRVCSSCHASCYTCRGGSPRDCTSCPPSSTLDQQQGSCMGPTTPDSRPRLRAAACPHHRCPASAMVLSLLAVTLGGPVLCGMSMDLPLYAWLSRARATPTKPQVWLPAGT

Assay [4] addresses T3, Proprotein convertase subtilisin/kexin type 7 (Homo sapiens, UniProt Q16549).
T3 sequence (Q16549 whole entry): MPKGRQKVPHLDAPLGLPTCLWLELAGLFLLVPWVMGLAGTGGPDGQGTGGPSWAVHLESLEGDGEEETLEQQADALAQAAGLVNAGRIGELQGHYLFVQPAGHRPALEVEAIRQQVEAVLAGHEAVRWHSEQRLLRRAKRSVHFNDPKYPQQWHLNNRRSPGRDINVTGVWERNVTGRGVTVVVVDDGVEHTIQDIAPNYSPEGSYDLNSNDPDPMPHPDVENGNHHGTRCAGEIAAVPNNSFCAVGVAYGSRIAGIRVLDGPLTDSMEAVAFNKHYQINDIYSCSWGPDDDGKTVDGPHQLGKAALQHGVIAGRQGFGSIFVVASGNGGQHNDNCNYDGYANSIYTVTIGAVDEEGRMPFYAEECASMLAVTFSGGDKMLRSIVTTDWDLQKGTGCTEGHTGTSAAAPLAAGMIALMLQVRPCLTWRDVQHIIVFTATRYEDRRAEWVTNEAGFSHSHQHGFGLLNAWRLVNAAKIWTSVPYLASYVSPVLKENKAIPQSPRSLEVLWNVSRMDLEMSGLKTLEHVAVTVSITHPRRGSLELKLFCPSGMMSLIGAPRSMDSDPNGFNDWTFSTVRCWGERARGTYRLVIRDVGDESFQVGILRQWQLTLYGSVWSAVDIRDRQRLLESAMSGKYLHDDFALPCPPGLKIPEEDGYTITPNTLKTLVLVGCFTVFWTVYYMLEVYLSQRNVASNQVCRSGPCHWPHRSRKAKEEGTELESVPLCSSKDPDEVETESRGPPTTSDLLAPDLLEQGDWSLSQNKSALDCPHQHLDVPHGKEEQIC

A further assay relates to U-251. The assay can be described thus: Inhibition of proprotein convertase-mediated anthrax protective antigen-83 processing in human U251 cells at 20 uM by Western blot. It is filed as cell-based. The conditions noted are these: Bacillus anthracis. In general terms: In western blotting, separated proteins are transferred to a membrane and probed.

As a reminder, the Ki is the dissociation constant of the complex between target and ligand, obtained from inhibition or displacement. Read a low Ki as higher affinity.

Activity calls are given as the source filed them. No cut-off for these calls is given here. Non-standard residues stand in square brackets, D forms with d. Residues, ends and D or L forms follow the SMILES beside them. Sar = CNCC(=O)O Where only a bound is given, the exact number is not on record here.

Chain of Furin (P09958 whole entry): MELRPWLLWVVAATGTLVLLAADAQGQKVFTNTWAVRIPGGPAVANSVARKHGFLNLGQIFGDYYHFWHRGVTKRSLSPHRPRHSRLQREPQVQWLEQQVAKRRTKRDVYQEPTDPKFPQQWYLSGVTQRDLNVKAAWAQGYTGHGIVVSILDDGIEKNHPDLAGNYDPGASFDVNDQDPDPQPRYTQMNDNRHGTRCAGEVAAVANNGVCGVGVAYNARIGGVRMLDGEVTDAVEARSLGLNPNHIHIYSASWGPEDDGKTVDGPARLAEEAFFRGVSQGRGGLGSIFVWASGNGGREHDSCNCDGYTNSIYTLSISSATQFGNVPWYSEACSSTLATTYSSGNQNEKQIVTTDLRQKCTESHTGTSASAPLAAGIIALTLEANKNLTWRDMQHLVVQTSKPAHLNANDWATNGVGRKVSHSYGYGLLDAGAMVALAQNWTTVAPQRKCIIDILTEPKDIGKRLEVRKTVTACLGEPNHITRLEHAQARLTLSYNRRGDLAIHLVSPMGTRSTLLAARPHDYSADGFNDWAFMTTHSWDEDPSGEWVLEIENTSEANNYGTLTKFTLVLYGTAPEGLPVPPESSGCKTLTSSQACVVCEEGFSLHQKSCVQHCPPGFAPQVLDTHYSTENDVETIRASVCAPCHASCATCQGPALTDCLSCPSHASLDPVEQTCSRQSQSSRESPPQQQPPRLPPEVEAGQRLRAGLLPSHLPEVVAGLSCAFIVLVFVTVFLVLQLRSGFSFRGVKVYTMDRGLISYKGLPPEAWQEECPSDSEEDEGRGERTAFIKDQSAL

Regarding H-TPRARRRKKRI-NH2, the Ki on Furin was determined as 30 nM; in assay [1], 267 nM; in assay [2] it was 492 nM; in assay [3], 562 nM; in assay [4], 135 nM.

Consider H-TPRARRRKKRF-NH2 [listing 1 of 2 here], for which the result in the assay with U-251 was Active.

For the compound H-TPRARRRKKRW-OH, in the assay on U-251, the outcome was Active.

As to H-TPRARRRKKRW-NH2, affinity on Furin was put at a Ki of 59 nM. Besides, the result in the assay on U-251 was Active.

H-TPRARRRKKRY-NH2 registered a Ki at Furin of 53 nM. In addition, in the assay on U-251, the outcome was Active.

In the case of H-TPQRARRRKKRT-OH, the Ki is 33 nM on Furin; 296 nM in assay [1]; 188 nM in assay [2]; 515 nM in assay [3]; 206 nM in assay [4].

Consider H-TPRARRRKKRT-OH, for which affinity on Furin was put at a Ki of 23 nM. Moreover, the outcome in the assay on U-251 was Active.

As for H-TPQRARRRKKRF-OH, the Ki on Furin was found to be 38 nM; in assay [1] it was 602 nM; in assay [2], 806 nM; in assay [3], 772 nM; in assay [4] it was 1130 nM.

On Furin, H-TPRARRRKKRF-OH came in with a Ki of 38 nM. Moreover, the outcome with U-251 was Active.

As to H-TPRARRRKKRY-OH, the result with U-251 was Active.

Turning to H-TPAARRRKKRV-OH, the Ki at Furin was greater than 100 nM.

Take H-TPQRARRRKKRW-OH: the Ki at Furin was 34 nM; in assay [1], 192 nM; in assay [2], 433 nM; in assay [3], 952 nM; in assay [4], 172 nM.

In the case of `C[C@H](NC(=O)[C@H](CCCNC(=N)N)NC(=O)[C@H](CCC(N)=O)NC(=O)[C@@H]1CCCN1C(=O)[C@@H](N)[C@@H](C)O)C(=O)N[C@@H](CCCNC(=N)N)C(=O)N[C@@H](CCCNC(=N)N)C(=O)N[C@@H](CCCNC(=N)N)C(=O)N[C@@H](CCCCN)C(=O)N[C@@H](CCCCN)C(=O)N[C@@H](CCCNC(=N)N)C(=O)N[C@H](CCCNC(=N)N)C(=O)O`, at Furin, the Ki was greater than 100 nM.

H-TPRERRRKKAG-OH had a Ki at Furin greater than 100 nM.

As for H-TPRYRRRKKRG-OH, on Furin, the Ki is greater than 100 nM.

H-TPQRFRRRKKRG-OH: at Furin, the Ki was greater than 100 nM.

Take H-GGGTPRARRRKKRY-OH: the affinity on Furin corresponds to a Ki of 42 nM.

H-TPRARRRKKRH-OH returned a Ki on Furin greater than 100 nM.

H-TPRARRRKKRF-NH2 [listing 2 of 2 here] gave a Ki on Furin of 38 nM.

The compound H-AAAERRRKKRG-OH returned an inhibition constant (Ki) at Furin greater than 100 nM.

`CC(C)C[C@H](NC(=O)[C@H](CCCN=C(N)N)NC(=O)[C@H](CCCCN)NC(=O)[C@H](CCCCN)NC(=O)[C@H](CCCN=C(N)N)NC(=O)[C@H](CCCN=C(N)N)NC(=O)[C@H](CCCN=C(N)N)NC(=O)[C@H](C)NC(=O)[C@H](CCCN=C(N)N)NC(=O)[C@@H]1CCCN1C(=O)[C@@H](N)[C@@H](C)O)C(=O)O` displayed a Ki on Furin greater than 100 nM.

Regarding H-TPQRARRRKKRH-OH, at Furin, the Ki is greater than 100 nM.

Regarding `C[C@H](NC(=O)[C@H](CCCN=C(N)N)NC(=O)[C@H](CCC(N)=O)NC(=O)[C@@H]1CCCN1C(=O)[C@@H](N)[C@@H](C)O)C(=O)N[C@@H](CCCN=C(N)N)C(=O)N[C@@H](CCCN=C(N)N)C(=O)N[C@@H](CCCN=C(N)N)C(=O)N[C@@H](CCCCN)C(=O)N[C@@H](CCCCN)C(=O)N[C@@H](CCCN=C(N)N)C(=O)NCC(=O)O`, on Furin, the Ki was greater than 100 nM.

On to H-TPQRARRRKKRY-OH, for which the Ki on Furin came to 47 nM; in assay [1] it was 1020 nM; in assay [2] it was 649 nM; in assay [3] it was 624 nM; in assay [4], 1220 nM.

`C[C@H](N)C(=O)N[C@@H](C)C(=O)N[C@@H](C)C(=O)N[C@@H](CCC(=O)O)C(=O)N[C@@H](CCCNC(=N)N)C(=O)N[C@@H](CCCNC(=N)N)C(=O)N[C@@H](CCCNC(=N)N)C(=O)N[C@@H](CCCCN)C(=O)N[C@@H](CCCCN)C(=O)N[C@@H](CCCNC(=N)N)C(=O)N(C)CC(=O)O` (H-AAAERRRKKR[Sar]-OH) showed a Ki at Furin greater than 100 nM.

Compound H-TPAERRRKKRG-OH yielded an inhibitory constant (Ki) on Furin greater than 100 nM.

In turn, H-TPRMRRRKKRG-NH2 showed a Ki on Furin greater than 100 nM.

`C[C@@H](O)[C@H](N)C(=O)N1CCC[C@H]1C(=O)N[C@@H](CCCNC(=N)N)C(=O)N[C@H](CCCCN)C(=O)N[C@@H](CCCNC(=N)N)C(=O)N[C@@H](CCCNC(=N)N)C(=O)N[C@@H](CCCNC(=N)N)C(=O)N[C@@H](CCCCN)C(=O)N[C@@H](CCCCN)C(=O)N[C@@H](CCCNC(=N)N)C(=O)NCC(=O)O`: the Ki on Furin was greater than 100 nM.

H-TPRQRRRKKRG-OH gave a Ki on Furin greater than 100 nM.

In turn, `C[C@@H](N)C(=O)N1CCC[C@H]1C(=O)N[C@@H](CCCNC(=N)N)C(=O)N[C@@H](CCC(=O)O)C(=O)N[C@@H](CCCNC(=N)N)C(=O)N[C@@H](CCCNC(=N)N)C(=O)N[C@@H](CCCNC(=N)N)C(=O)N[C@@H](CCCCN)C(=O)N[C@@H](CCCCN)C(=O)N[C@@H](CCCNC(=N)N)C(=O)NCC(N)=O` returned a Ki on Furin greater than 100 nM.

Compound H-TPREAARKKRV-OH displayed a Ki at Furin greater than 100 nM.

With `C[C@@H](O)[C@H](N)C(=O)N1CCC[C@H]1C(=O)N[C@@H](CCC(N)=O)C(=O)N[C@@H](CCCNC(=N)N)C(=O)NCCCCCC(=O)N[C@@H](CCCNC(=N)N)C(=O)N[C@@H](CCCNC(=N)N)C(=O)N[C@@H](CCCNC(=N)N)C(=O)N[C@@H](CCCCN)C(=O)N[C@@H](CCCCN)C(=O)N[C@@H](CCCNC(=N)N)C(=O)NCC(=O)O`, the Ki on Furin was greater than 100 nM.

Turning to `CC(C)C[C@H](NC(=O)[C@H](CCCNC(=N)N)NC(=O)[C@H](CCCCN)NC(=O)[C@H](CCCCN)NC(=O)[C@H](CCCNC(=N)N)NC(=O)[C@H](CCCNC(=N)N)NC(=O)[C@H](CCCNC(=N)N)NC(=O)[C@H](C)NC(=O)[C@H](CCCNC(=N)N)NC(=O)[C@@H]1CCCN1C(=O)[C@@H](N)[C@@H](C)O)C(N)=O`, the inhibition constant Ki on Furin is greater than 100 nM.

In turn, H-TPRARRRKKRQ-NH2 showed a Ki on Furin of 47 nM.

At Furin, `C[C@H](NC(=O)[C@H](C)NC(=O)[C@H](CCCNC(=N)N)NC(=O)[C@H](CCCNC(=N)N)NC(=O)[C@H](CCC(=O)O)NC(=O)[C@H](CCCNC(=N)N)NC(=O)[C@@H]1CCCN1C(=O)[C@@H](N)[C@@H](C)O)C(=O)N[C@@H](CCCCN)C(=O)N[C@@H](CCCNC(=N)N)C(=O)N(C)CC(=O)O` (H-TPRERRAAKR[Sar]-OH) came in with a Ki greater than 100 nM.

Regarding H-TAAERRRKKRG-OH, the Ki on Furin is greater than 100 nM.

The record behind these values is ChEMBL document CHEMBL1156471, “Targeting host cell furin proprotein convertases as a therapeutic strategy against bacterial toxins and viral pathogens” (J Biol Chem, 2007).
